Assay results reported in patent US6407104B1, “Pyrrolo[1,2-a]pyrazine spla2 inhibitor” (Shionogi & Co., Ltd., priority 1998, dated 2002).

Tests used:
[1] = biological target: T1, recombinant human secretory phospholipase A2 (Homo sapiens, UniProt P14555); test: Inhibition Test of Human Secretory Phospholipase A2 (chromogenic assay); type: biochemical; conditions: sPLA2 50 ng/well, 40° C., 30 minutes, OD 405 nm, 96 well microtiterplate
T1 sequence (P14555 21-144): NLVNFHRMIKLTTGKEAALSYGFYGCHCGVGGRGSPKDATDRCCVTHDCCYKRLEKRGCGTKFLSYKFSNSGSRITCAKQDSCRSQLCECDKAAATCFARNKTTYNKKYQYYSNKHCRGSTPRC
From the text: Test Example: Inhibition Test of Human Secretory Phospholipase A2
In order to identify and evaluate an inhibitor of recombinant human secretory phospholipase A2, the following chromogenic assay is utilized. The assay herein has been applied for high volume screening wherein 96 well microtiterplate is used. A general explanation for such assay is described in “Analysis of Human Synovial Fluid Phospholipase A2 on Short Chain Phosphatidylcholine-Mixed Micelles: Development of a Spectrophotometric Assay Suitable for a Micortiterplate Reader” (Analytical Biochemistry, 204, pp 190-197, 1992 by Laure. J. Reynolds. Lori L. Hughes and Edward A. Dennis: the disclosure of which is incorporated herein for reference.
pH 7.5 (adjusted with NaOH)
pH 4.5 (adjusted with acetic acid)
1 mg of sPLA2 is dissolved in 1 ml of an enzyme buffer. Thereafter, the solution is maintained at 4° C.
In the assay, 5 μl of the solution is diluted with 1995 μl of the reaction buffer to be used.
198 mg of 5,5′-dithiobis-2-[…] (manufactured by Wako Pure Chemicals) is dissolved in 100 ml of H2O
H 7.5 (adjusted with NaOH)
100 mg of racemic 1,2-bis(heptanoylthio)-1,2-dideoxy-sn-glycero-3-phospholylcholine is dissolved in 1 ml of chloroform.
624.9 mg of Triton-X 100 is dissolved in the reaction buffer.
Enzyme Reaction: for 1 Plate of Microtiterplate
1) 0.106 ml of the substrate solution is put in a centrifugal tube, and nitrogen gas is jetted to remove the solvent. 0.54 ml of Triton-X 100 is added thereto, the mixture is stirred, thereafter it is sonified in a bath type sonification to dissolve. To the resulting product are added 17.8 ml of the reaction buffer and 0.46 ml of DTNB, and 0.18 ml each of the admixture is poured to wells of the 96 well microtiterplate.
2) 10 μl of a test compound (or solvent blank) are added in accordance with alignment of plates which has been previously set.
3) Incubation is effected at 40° C. for 15 minutes.
4) 20μl of an enzyme solution (sPLA2) which has been previously diluted (50 ng/well) are added to start reaction (40° C., 30 minutes).
5) Changes in absorbancy for 30 minutes are measured by a plate reader, and inhibition activity was calculated (OD: 405 nm).
6) IC50 was determined by plotting log concentration with respect to inhibition values within 10% to 90% inhibiting range.

SMILES	IC50 [1] [nM]	melting point [°C]
CCc1c(C(=O)C(N)=O)c2c(OCC(=O)O)nccn2c1Cc1cccc(OC)c1 [Compound I-10]	14	196 to 197.5
CCc1c(C(=O)C(N)=O)c2c(OCC(=O)OC)nccn2c1Cc1ccccc1 [Compound I-1]	208	151 to 152
CCc1c(C(=O)C(N)=O)c2c(OCC(=O)OC)nc(C)cn2c1Cc1ccccc1C#Cc1ccccc1 [Compound I-53]	59	147 to 149
CCc1c(C(=O)C(N)=O)c2c(OCC(=O)OC)nc(C)cn2c1Cc1cccc(F)c1 [Compound I-35]	182	179.5 to 181
CCc1c(C(=O)C(N)=O)c2c(OCC(=O)OCCN3CCOCC3)nc(C)cn2c1Cc1ccc(F)cc1 [Compound I-95]	175	139 to 140
COC(=O)COc1nccn2c(Cc3ccccc3)c(C)c(C(=O)C(N)=O)c12 [Compound I-13]	157	182 to 183
CCc1c(C(=O)C(N)=O)c2c(OCC(=O)O)nc(C)cn2c1Cc1cccc(-c2ccc(C)s2)c1 [Compound I-64]	6	190.5 to 193
CCc1c(C(=O)C(N)=O)c2c(OCC(=O)O)nc(C)cn2c1Cc1ccccc1Oc1ccccc1 [Compound I-56, [7-Ethyl-3-methyl-8-oxamoyl-6-(2-phenyloxybenzyl)pyrrolo [1,2-a]pyrazin-1-yl]oxyacetic acid]	6	208 to 210
CCOC(=O)COc1nc(C)cn2c(Cc3ccccc3-c3ccc(F)cc3)c(CC)c(C(=O)C(N)=O)c12 [Compound I-90]	38	172 to 173
CCc1c(C(=O)C(N)=O)c2c(OCC(=O)OC)nc(C)cn2c1Cc1csc2ccccc12 [Compound I-87]	129	186 to 187
CCc1c(C(=O)C(N)=O)c2c(OCC(=O)OC)nccn2c1Cc1cccs1 [Compound I-5]	314	165 to 166
CCc1c(C(=O)C(N)=O)c2c(OCC(=O)OC)nc(C)cn2c1Cc1ccc(OC)cc1 [Compound I-33]	703	189 to 190
CCCCCOC(=O)COc1nc(C)cn2c(Cc3ccc(F)cc3)c(CC)c(C(=O)C(N)=O)c12 [Compound I-94]	650	175 to 176
CCc1c(C(=O)C(N)=O)c2c(OCC(=O)OC)nc(C)cn2c1Cc1ccccc1Oc1ccccc1 [Compound I-55]	32	161 to 163
CCOC(=O)COc1nc(C)cn2c(Cc3ccccc3-c3ccsc3)c(CC)c(C(=O)C(N)=O)c12 [Compound I-92]	76	185 to 186
CCc1c(C(=O)C(N)=O)c2c(OCC(=O)OC)nc(C)cn2c1Cc1ccccc1F [Compound I-25]	196	187 to 188
CCc1c(C(=O)C(N)=O)c2c(OCC(=O)OC)nc(C)cn2c1Cc1ccccc1-c1ccccc1 [Compound I-21]	41	164.5 to 165.5
CCc1c(C(=O)C(N)=O)c2c(OCC(=O)OC)nc(C)cn2c1Cc1ccccc1-c1ccc(F)cc1 [Compound I-29]	56	147 to 149
CCc1c(C(=O)C(N)=O)c2c(OCC(=O)O)nc(C)cn2c1Cc1ccccc1-c1ccc(F)cc1 [Compound I-30]	8	175 to 177
CCc1c(C(=O)C(N)=O)c2c(OCC(=O)O)nc(C)cn2c1Cc1ccccc1C(=O)c1ccccc1 [Compound I-72]	13	131 to 133
CCc1c(C(=O)C(N)=O)c2c(OCC(=O)OC)nc(-c3ccccc3)cn2c1Cc1ccccc1 [Compound I-43]	41	203 to 205
CCc1c(C(=O)C(N)=O)c2c(OCC(=O)O)nc(C)cn2c1Cc1ccccc1-c1ccc(C)cc1 [Compound I-70]	5	179.5 to 181.5
CCc1c(C(=O)C(N)=O)c2c(OCC(=O)OC)nc(C)cn2c1Cc1ccccc1Cc1ccccc1 [Compound I-27]	22	134.5 to 136
CCc1c(C(=O)C(N)=O)c2c(OCC(=O)OC)nc(C3CCCCC3)cn2c1Cc1ccccc1-c1ccccc1 [Compound I-81]	201	161.5 to 162.5
CCc1cn2c(Cc3ccccc3)c(CC)c(C(=O)C(N)=O)c2c(OCC(=O)OC)n1 [Compound I-41]	107	154 to 156
CCc1c(C(=O)C(N)=O)c2c(OCC(=O)O)nc(C3CCCCC3)cn2c1Cc1ccccc1-c1ccccc1 [Compound I-82]	5	200 to 201.5
CCc1c(C(=O)C(N)=O)c2c(OCC(=O)OC)nc(C)cn2c1CC1CCCC1 [Compound I-23]	651	135 to 136.5
CCOC(=O)COc1nc(C)cn2c(Cc3ccccc3-c3cccs3)c(CC)c(C(=O)C(N)=O)c12 [Compound I-91]	48	160 to 161
CCc1c(C(=O)C(N)=O)c2c(OCC(=O)OC)nc(C)cn2c1Cc1ccc(F)cc1F [Compound I-31]	1170	161 to 163
CCc1c(C(=O)C(N)=O)c2c(OCC(=O)OC)nc(C)cn2c1Cc1ccccc1C(=O)c1ccccc1 [Compound I-71]	901	190 to 192

More lines, now with the values ahead:

IC50 [1] [nM]	melting point [°C]	SMILES
7	180.5 to 182.5	CCc1c(C(=O)C(N)=O)c2c(OCC(=O)O)nc(C)cn2c1Cc1ccccc1Cc1ccccc1 [Compound I-28]
17	200 to 202	CCc1c(C(=O)C(N)=O)c2c(OCC(=O)O)nc(Cc3ccccc3)cn2c1Cc1ccccc1 [Compound I-50]
1380	179 to 182.5	COC(=O)COc1nc(C)cn2c(Cc3ccc(F)cc3)c(C3CC3)c(C(=O)C(N)=O)c12 [Compound I-77]
33	211 to 212	CCc1c(C(=O)C(N)=O)c2c(OCC(=O)O)nc(CO)cn2c1Cc1ccccc1 [Compound I-38]
6	227 to 230	CCc1c(C(=O)C(N)=O)c2c(OCC(=O)O)nc(C3CCCCC3)cn2c1Cc1ccccc1 [Compound I-80]
1460	210 to 211.5	COC(=O)COc1nc(C)cn2c(Cc3ccccc3)c(C3CC3)c(C(=O)C(N)=O)c12 [Compound I-75]
60	185 to 187	Cc1cn2c(Cc3ccc(F)cc3)c(C3CC3)c(C(=O)C(N)=O)c2c(OCC(=O)O)n1 [Compound I-78]
10	216 to 217	CCc1c(C(=O)C(N)=O)c2c(OCC(=O)O)nc(CC(C)C)cn2c1Cc1ccccc1 [Compound I-46]
172	192 to 194	CCc1c(C(=O)C(N)=O)c2c(OCC(=O)OC)nc(C)cn2c1Cc1ccccc1 [Compound I-17]
726	201 to 202	CCc1c(C(=O)C(N)=O)c2c(OCC(=O)OC)nc(CO)cn2c1Cc1ccccc1 [Compound I-37]
35	189 to 191	NC(=O)C(=O)c1c(C2CC2)c(Cc2ccccc2)n2ccnc(OCC(=O)O)c12 [Compound I-4]
11	190.5 to 193	CCc1c(C(=O)C(N)=O)c2c(OCC(=O)O)nc(C)cn2c1Cc1cccc(F)c1 [Compound I-36]
29	194.5 to 196	Cc1cn2c(Cc3ccccc3)c(C3CC3)c(C(=O)C(N)=O)c2c(OCC(=O)O)n1 [Compound I-76]
11	207 to 208	Cc1c(C(=O)C(N)=O)c2c(OCC(=O)O)nccn2c1Cc1ccccc1 [Compound I-14]
12	211 to 213	CCc1c(C(=O)C(N)=O)c2c(OCC(=O)O)nc(C(C)C)cn2c1Cc1ccccc1 [Compound I-40]
9	207 to 208	CCc1c(C(=O)C(N)=O)c2c(OCC(=O)O)nc(C)cn2c1Cc1ccccc1 [Compound I-18, [6-Benzyl-7-ethyl-3-methyl-8-oxamoylpyrrolo[1,2-a]pyrazin-1-yl]oxyacetic acid]
